From ChEMBL document CHEMBL3046001, “4-Thiazolidinone and 1-thia-3,4,9-triaza fluorene conjugates: synthesis, characterization and antimicrobial screening” (2013)
Values after ≈ are worked out from the molar mass of the structure shown. Active and inactive are the calls of the source. The calls are words filed in the database; no cut-off is given here.

Columns and labels:
Pseudomonas fluorescens [1] = experiment: Antibacterial activity against Pseudomonas fluorescens MTCC 2421 assessed as growth inhibition at 1250 ug/mL after 48 hr by agar diffusion method; format: functional; settings: MTCC 2421, 48 h, read-out: DIZ
Bacillus pumilus [2] = experiment: Antibacterial activity against Bacillus pumilus MTCC 1456 assessed as growth inhibition at 750 ug/mL after 48 hr by agar diffusion method; format: functional; settings: MTCC 1456, 48 h, read-out: DIZ
Escherichia coli [3] = experiment: Antibacterial activity against Escherichia coli MTCC 1573 assessed as growth inhibition at 750 ug/mL after 48 hr by agar diffusion method; format: functional; settings: MTCC 1573, 48 h, read-out: DIZ
Pseudomonas aeruginosa [4] = experiment: Antibacterial activity against Pseudomonas aeruginosa MTCC 424 assessed as growth inhibition at 250 ug/mL after 48 hr by agar diffusion method; format: functional; settings: MTCC 424, 48 h, read-out: DIZ
Escherichia coli [5] = experiment: Antibacterial activity against Escherichia coli MTCC 1573 assessed as growth inhibition at 500 ug/mL after 48 hr by agar diffusion method; format: functional; settings: MTCC 1573, 48 h, read-out: DIZ
Escherichia coli [6] = experiment: Antibacterial activity against Escherichia coli MTCC 1573 assessed as growth inhibition at 1000 ug/mL after 48 hr by agar diffusion method; format: functional; settings: MTCC 1573, 48 h, read-out: DIZ
Escherichia coli [7] = experiment: Antibacterial activity against Escherichia coli MTCC 1573 assessed as growth inhibition at 250 ug/mL after 48 hr by agar diffusion method; format: functional; settings: MTCC 1573, 48 h, read-out: DIZ
Pseudomonas aeruginosa [8] = experiment: Antibacterial activity against Pseudomonas aeruginosa MTCC 424 assessed as growth inhibition at 1000 ug/mL after 48 hr by agar diffusion method; format: functional; settings: MTCC 424, 48 h, read-out: DIZ
Pseudomonas fluorescens [9] = experiment: Antibacterial activity against Pseudomonas fluorescens MTCC 2421 assessed as growth inhibition at 750 ug/mL after 48 hr by agar diffusion method; format: functional; settings: MTCC 2421, 48 h, read-out: DIZ
Pseudomonas fluorescens [10] = experiment: Antibacterial activity against Pseudomonas fluorescens MTCC 2421 assessed as growth inhibition at 500 ug/mL after 48 hr by agar diffusion method; format: functional; settings: MTCC 2421, 48 h, read-out: DIZ
Aspergillus niger [11] = experiment: Antifungal activity against Aspergillus niger MTCC 2546 assessed as growth inhibition at 1000 ug/mL after 48 hr by agar diffusion method; format: functional; settings: MTCC 2546, 48 h, read-out: DIZ
Bacillus pumilus [12] = experiment: Antibacterial activity against Bacillus pumilus MTCC 1456 assessed as growth inhibition after 24 hr by tube dilution method; format: functional; settings: MTCC 1456, 24 h
Pseudomonas aeruginosa [13] = experiment: Antibacterial activity against Pseudomonas aeruginosa MTCC 424 assessed as growth inhibition at 750 ug/mL after 48 hr by agar diffusion method; format: functional; settings: MTCC 424, 48 h, read-out: DIZ
Aspergillus niger [14] = experiment: Antifungal activity against Aspergillus niger MTCC 2546 assessed as growth inhibition at 500 ug/mL after 48 hr by agar diffusion method; format: functional; settings: MTCC 2546, 48 h, read-out: DIZ
Staphylococcus aureus [15] = experiment: Antibacterial activity against Staphylococcus aureus MTCC 1430 assessed as growth inhibition at 1000 ug/mL after 48 hr by agar diffusion method; format: functional; settings: MTCC 1430, 48 h, read-out: DIZ
Pseudomonas fluorescens [16] = experiment: Antibacterial activity against Pseudomonas fluorescens MTCC 2421 assessed as growth inhibition after 24 hr by tube dilution method; format: functional; settings: MTCC 2421, 24 h
Penicillium chrysogenum [17] = experiment: Antifungal activity against Penicillium chrysogenum MTCC 161 assessed as growth inhibition at 1000 ug/mL after 48 hr by agar diffusion method; format: functional; settings: MTCC 161, 48 h, read-out: DIZ
Penicillium chrysogenum [18] = experiment: Antifungal activity against Penicillium chrysogenum MTCC 161 assessed as growth inhibition at 100 ug/mL after 48 hr by agar diffusion method; format: functional, organism-based
Bacillus subtilis [19] = experiment: Antibacterial activity against Bacillus subtilis MTCC 441 assessed as growth inhibition at 500 ug/mL after 48 hr by agar diffusion method; format: functional; settings: MTCC 441, 48 h, read-out: DIZ
Pseudomonas aeruginosa [20] = experiment: Antibacterial activity against Pseudomonas aeruginosa MTCC 424 assessed as growth inhibition at 1250 ug/mL after 48 hr by agar diffusion method; format: functional; settings: MTCC 424, 48 h, read-out: DIZ
Micrococcus luteus [21] = experiment: Antibacterial activity against Micrococcus luteus MTCC 1538 assessed as growth inhibition at 750 ug/mL after 48 hr by agar diffusion method; format: functional; settings: MTCC 1538, 48 h, read-out: DIZ
Bacillus pumilus [22] = experiment: Antibacterial activity against Bacillus pumilus MTCC 1456 assessed as growth inhibition at 250 ug/mL after 48 hr by agar diffusion method; format: functional; settings: MTCC 1456, 48 h, read-out: DIZ
Bacillus subtilis [23] = experiment: Antibacterial activity against Bacillus subtilis MTCC 441 assessed as growth inhibition at 1000 ug/mL after 48 hr by agar diffusion method; format: functional; settings: MTCC 441, 48 h, read-out: DIZ
Bacillus subtilis [24] = experiment: Antibacterial activity against Bacillus subtilis MTCC 441 assessed as growth inhibition at 100 ug/mL after 48 hr by agar diffusion method; format: functional; settings: MTCC 441, 48 h, read-out: DIZ
Micrococcus luteus [25] = experiment: Antibacterial activity against Micrococcus luteus MTCC 1538 assessed as growth inhibition at 500 ug/mL after 48 hr by agar diffusion method; format: functional; settings: MTCC 1538, 48 h, read-out: DIZ
Bacillus subtilis [26] = experiment: Antibacterial activity against Bacillus subtilis MTCC 441 assessed as growth inhibition at 250 ug/mL after 48 hr by agar diffusion method; format: functional; settings: MTCC 441, 48 h, read-out: DIZ
Bacillus pumilus [27] = experiment: Antibacterial activity against Bacillus pumilus MTCC 1456 assessed as growth inhibition at 100 ug/mL after 48 hr by agar diffusion method; format: functional; settings: MTCC 1456, 48 h, read-out: DIZ
Staphylococcus aureus [28] = experiment: Antibacterial activity against Staphylococcus aureus MTCC 1430 assessed as growth inhibition at 250 ug/mL after 48 hr by agar diffusion method; format: functional; settings: MTCC 1430, 48 h, read-out: DIZ
Bacillus subtilis [29] = experiment: Antibacterial activity against Bacillus subtilis MTCC 441 assessed as growth inhibition after 24 hr by tube dilution method; format: functional; settings: MTCC 441, 24 h
Penicillium chrysogenum [30] = experiment: Antifungal activity against Penicillium chrysogenum MTCC 161 assessed as growth inhibition at 500 ug/mL after 48 hr by agar diffusion method; format: functional; settings: MTCC 161, 48 h, read-out: DIZ
Penicillium chrysogenum [31] = experiment: Antifungal activity against Penicillium chrysogenum MTCC 161 assessed as growth inhibition at 1250 ug/mL after 48 hr by agar diffusion method; format: functional; settings: MTCC 161, 48 h, read-out: DIZ
Bacillus subtilis [32] = experiment: Antibacterial activity against Bacillus subtilis MTCC 441 assessed as growth inhibition at 750 ug/mL after 48 hr by agar diffusion method; format: functional; settings: MTCC 441, 48 h, read-out: DIZ
Pseudomonas aeruginosa [33] = experiment: Antibacterial activity against Pseudomonas aeruginosa MTCC 424 assessed as growth inhibition after 24 hr by tube dilution method; format: functional; settings: MTCC 424, 24 h
Staphylococcus aureus [34] = experiment: Antibacterial activity against Staphylococcus aureus MTCC 1430 assessed as growth inhibition at 500 ug/mL after 48 hr by agar diffusion method; format: functional; settings: MTCC 1430, 48 h, read-out: DIZ
Pseudomonas fluorescens [35] = experiment: Antibacterial activity against Pseudomonas fluorescens MTCC 2421 assessed as growth inhibition at 100 ug/mL after 48 hr by agar diffusion method; format: functional
Micrococcus luteus [36] = experiment: Antibacterial activity against Micrococcus luteus MTCC 1538 assessed as growth inhibition at 1000 ug/mL after 48 hr by agar diffusion method; format: functional; settings: MTCC 1538, 48 h, read-out: DIZ
Aspergillus niger [37] = experiment: Antifungal activity against Aspergillus niger MTCC 2546 assessed as growth inhibition after 24 hr by tube dilution method; format: functional; settings: MTCC 2546, 24 h
Aspergillus niger [38] = experiment: Antifungal activity against Aspergillus niger MTCC 2546 assessed as growth inhibition at 1250 ug/mL after 48 hr by agar diffusion method; format: functional; settings: MTCC 2546, 48 h, read-out: DIZ
Pseudomonas aeruginosa [39] = experiment: Antibacterial activity against Pseudomonas aeruginosa MTCC 424 assessed as growth inhibition at 500 ug/mL after 48 hr by agar diffusion method; format: functional; settings: MTCC 424, 48 h, read-out: DIZ

Row | SMILES | zone of inhibition at 1250 µg/mL (Pseudomonas fluorescens [1]) [mm] | zone of inhibition at 750 µg/mL (Bacillus pumilus [2]) [mm] | zone of inhibition at 750 µg/mL (Escherichia coli [3]) [mm] | zone of inhibition at 250 µg/mL (Pseudomonas aeruginosa [4]) [mm] | zone of inhibition at 500 µg/mL (Escherichia coli [5]) [mm] | zone of inhibition at 1000 µg/mL (Escherichia coli [6]) [mm] | zone of inhibition at 250 µg/mL (Escherichia coli [7]) [mm] | zone of inhibition at 1000 µg/mL (Pseudomonas aeruginosa [8]) [mm] | zone of inhibition at 750 µg/mL (Pseudomonas fluorescens [9]) [mm] | zone of inhibition at 500 µg/mL (Pseudomonas fluorescens [10]) [mm] | zone of inhibition at 1000 µg/mL (Aspergillus niger [11]) [mm] | MIC (Bacillus pumilus [12]) [µg/mL] | zone of inhibition at 750 µg/mL (Pseudomonas aeruginosa [13]) [mm] | zone of inhibition at 500 µg/mL (Aspergillus niger [14]) [mm] | zone of inhibition at 1000 µg/mL (Staphylococcus aureus [15]) [mm] | MIC (Pseudomonas fluorescens [16]) [µg/mL] | zone of inhibition at 1000 µg/mL (Penicillium chrysogenum [17]) [mm] | growth inhibition (GI) (Penicillium chrysogenum [18]) | zone of inhibition at 500 µg/mL (Bacillus subtilis [19]) [mm] | zone of inhibition at 1250 µg/mL (Pseudomonas aeruginosa [20]) [mm] | further results
1 | O=C1CSC(c2cccc3ccccc23)N1c1nnc2c3ccccc3nc-2s1 (stereo not drawn) | 22 | 15 | 13 | 10 | 12 | 15 | 10 | 17 | 16 | 14 | 15 | 20 (≈ 48.2 µM) | 15 | 8 | 14 | 40 (≈ 96.5 µM) | 12 | inactive | 13 | 20 | zone of inhibition at 750 µg/mL (Micrococcus luteus [21]): 11 mm; zone of inhibition at 250 µg/mL (Bacillus pumilus [22]): 8 mm; zone of inhibition at 1000 µg/mL (Bacillus subtilis [23]): 17 mm; zone of inhibition at 100 µg/mL (Bacillus subtilis [24]): 8 mm; zone of inhibition at 500 µg/mL (Micrococcus luteus [25]): 8 mm; zone of inhibition at 250 µg/mL (Bacillus subtilis [26]): 10 mm; zone of inhibition at 100 µg/mL (Bacillus pumilus [27]): 6 mm; zone of inhibition at 250 µg/mL (Staphylococcus aureus [28]): 8 mm; MIC (Bacillus subtilis [29]): 40 µg/mL (≈ 96.5 µM); zone of inhibition at 500 µg/mL (Penicillium chrysogenum [30]): 9 mm; zone of inhibition at 1250 µg/mL (Penicillium chrysogenum [31]): 15 mm; zone of inhibition at 750 µg/mL (Bacillus subtilis [32]): 15 mm; MIC (Pseudomonas aeruginosa [33]): 40 µg/mL (≈ 96.5 µM); zone of inhibition at 500 µg/mL (Staphylococcus aureus [34]): 10 mm; zone of inhibition at 100 µg/mL (Pseudomonas fluorescens [35]; MTCC 2421, 48 h, read-out: DIZ): 7 mm; zone of inhibition at 1000 µg/mL (Micrococcus luteus [36]): 14 mm; MIC (Aspergillus niger [37]): 250 µg/mL (≈ 603 µM); zone of inhibition at 1250 µg/mL (Aspergillus niger [38]): 19 mm; zone of inhibition at 500 µg/mL (Pseudomonas aeruginosa [39]): 13 mm
2 | CC1SCC(=O)N1c1nnc2c3cc(Cl)ccc3nc-2s1 (stereo not drawn) | 19 | 13 | 17 | 9 | 14 | 19 | 11 | 18 | 12 | 8 | 15 | 40 (≈ 119 µM) | 17 | 10 | 15 | 150 (≈ 445 µM) | 18 | inactive | 15 | 20 | zone of inhibition at 750 µg/mL (Micrococcus luteus [21]): 14 mm; zone of inhibition at 250 µg/mL (Bacillus pumilus [22]): 10 mm; zone of inhibition at 1000 µg/mL (Bacillus subtilis [23]): 19 mm; zone of inhibition at 100 µg/mL (Bacillus subtilis [24]): 8 mm; zone of inhibition at 500 µg/mL (Micrococcus luteus [25]): 10 mm; zone of inhibition at 250 µg/mL (Bacillus subtilis [26]): 10 mm; zone of inhibition at 100 µg/mL (Bacillus pumilus [27]): 8 mm; zone of inhibition at 250 µg/mL (Staphylococcus aureus [28]): 8 mm; MIC (Bacillus subtilis [29]): 50 µg/mL (≈ 148 µM); zone of inhibition at 500 µg/mL (Penicillium chrysogenum [30]): 12 mm; zone of inhibition at 1250 µg/mL (Penicillium chrysogenum [31]): 20 mm; zone of inhibition at 750 µg/mL (Bacillus subtilis [32]): 17 mm; MIC (Pseudomonas aeruginosa [33]): 50 µg/mL (≈ 148 µM); zone of inhibition at 500 µg/mL (Staphylococcus aureus [34]): 10 mm; growth inhibition (GI) (Pseudomonas fluorescens [35]): inactive; zone of inhibition at 1000 µg/mL (Micrococcus luteus [36]): 17 mm; MIC (Aspergillus niger [37]): 250 µg/mL (≈ 742 µM); zone of inhibition at 1250 µg/mL (Aspergillus niger [38]): 17 mm; zone of inhibition at 500 µg/mL (Pseudomonas aeruginosa [39]): 14 mm
